In US9815796B2 (Merck Sharp & Dohme Corp., priority 2013, dated 2017):

These compounds were tested against human PDE2A1 (Homo sapiens (Human), UniProt O00408) (assay: IMAP FP PDE selectivity panel, human PDE2A1). Conditions: Human PDE2, Lab B; read-out: Human PDE2 Ki (nM) - Lab B.
Assay type: biochemical
Method in brief: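 GST-tagged human PDE2A1 expressed in insect cells, run at room temperature for 60 min with 50 nM FAM-cAMP containing 1000 nM cGMP, pH 7.2 Tris/MgCl2 buffer. IMAP fluorescence polarization read after binding step.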

human PDE2A1, sequence (O00408 other isoform, or with tags, fused parts or gaps): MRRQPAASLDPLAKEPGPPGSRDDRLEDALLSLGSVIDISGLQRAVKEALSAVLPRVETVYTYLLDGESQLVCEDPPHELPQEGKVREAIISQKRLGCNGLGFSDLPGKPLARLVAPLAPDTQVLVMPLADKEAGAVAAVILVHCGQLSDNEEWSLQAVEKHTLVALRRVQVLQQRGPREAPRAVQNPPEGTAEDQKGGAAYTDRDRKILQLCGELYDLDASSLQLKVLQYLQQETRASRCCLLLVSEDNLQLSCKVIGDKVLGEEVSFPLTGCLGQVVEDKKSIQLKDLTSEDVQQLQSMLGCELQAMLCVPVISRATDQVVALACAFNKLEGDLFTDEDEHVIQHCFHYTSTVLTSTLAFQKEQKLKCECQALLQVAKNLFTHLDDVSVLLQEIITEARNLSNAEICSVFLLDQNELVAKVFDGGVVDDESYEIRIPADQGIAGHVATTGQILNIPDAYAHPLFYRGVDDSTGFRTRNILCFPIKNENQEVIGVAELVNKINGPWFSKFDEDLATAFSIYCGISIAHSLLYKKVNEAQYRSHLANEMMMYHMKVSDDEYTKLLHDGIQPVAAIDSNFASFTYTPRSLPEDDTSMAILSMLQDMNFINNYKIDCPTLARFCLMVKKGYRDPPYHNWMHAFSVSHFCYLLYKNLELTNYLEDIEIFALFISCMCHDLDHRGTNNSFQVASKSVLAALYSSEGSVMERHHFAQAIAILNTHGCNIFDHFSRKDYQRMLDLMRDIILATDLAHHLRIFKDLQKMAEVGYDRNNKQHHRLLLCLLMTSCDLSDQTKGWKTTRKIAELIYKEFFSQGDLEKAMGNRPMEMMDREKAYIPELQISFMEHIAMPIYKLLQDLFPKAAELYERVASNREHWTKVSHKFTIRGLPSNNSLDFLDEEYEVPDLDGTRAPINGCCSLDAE

| Ki | SMILES |
| --- | --- |
| 53 nM | Cc1nc(C(=O)N[C@@H](c2ccc(OC(F)F)c(F)c2)C2CC2)cc(=O)[nH]1 [Example 629, N-{(R)-cyclopropyl[4-(difluoromethoxy)-3-fluorophenyl]methyl]-2-methyl-6-oxo-1,6-dihydropyrimidine-4-carboxamide] |
| 5.1 nM | Cc1nc(C(=O)N[C@@H](c2ccc(OC(F)F)c(F)c2)C(C)(C)C)cc(=O)[nH]1 [Example 630, N-{(1R)-1-[4-(difluoromethoxy)-3-fluorophenyl]-2,2-dimethylpropyl}-2-methyl-6-oxo-1,6-dihydropyrimidine-4-carboxamide] |
| 13 nM | Cc1nc(C(=O)N[C@@H](c2ccc(OC(F)F)c(F)c2)C2(C)CC2)cc(=O)[nH]1 [Example 631, N-[(R)-[4-(difluoromethoxy)-3-fluorophenyl](1-methylcyclopropyl)methyl]-2-methyl-6-oxo-1,6-dihydropyrimidine-4-carboxamide] |
| 106 nM | CC[C@@H](NC(=O)c1cc(=O)[nH]c(C)n1)c1ccc2c(c1)OC(F)(F)O2 [Example 632, N-[(1R)-1-(2,2-difluoro-1,3-benzodioxol-5-yl)propyl]-2-methyl-6-oxo-1,6-dihydropyrimidine-4-carboxamide] |
| 16 nM | Cc1nc(C(=O)N[C@@H](c2ccc3c(c2)OC(F)(F)O3)C(C)(C)C)cc(=O)[nH]1 [Example 633, N-[(1R)-1-(2,2-difluoro-1,3-benzodioxol-5-yl)-2,2-dimethylpropyl]-2-methyl-6-oxo-1,6-dihydropyrimidine-4-carboxamide] |
| 29 nM | Cc1nc(C(=O)N[C@@H](c2ccc3c(c2)OC(F)(F)O3)C2(C)CC2)cc(=O)[nH]1 [Example 634, N-[(R)-(2,2-difluoro-1,3-benzodioxol-5-yl)(1-methylcyclopropyl)methyl]-2-methyl-6-oxo-1,6-dihydropyrimide-4-carboxamide] |
| 59 nM | Cc1nc(C(=O)N[C@@](C)(CO)c2ccc(C(F)(F)F)cc2)cc(=O)[nH]1 [Example 635, N-{(1R)-2-hydroxy-1-methyl-1-[4-(trifluoromethyl)phenyl)ethyl}-2-methyl-6-oxo-1,6-dihydropyrimidine-4-carboxamide] |
| 19 nM | Cc1nc(C(=O)N[C@](C)(CO)c2ccc(C(F)(F)F)cc2)cc(=O)[nH]1 [Example 636, N-{(1S)-2-hydroxy-1-methyl-1-[4-(trifluoromethyl)phenyl]ethyl}-2-methyl-6-oxo-1,6-dihydropyrimidine-4-carboxamide] |
| 16 nM | Cc1nc(C(=O)NC2(c3ccc(C(F)(F)F)cc3Cl)CC2)cc(=O)[nH]1 [Example 637, N-{1-[2-chloro-4-(trifluoromethyl)phenyl]cyclopropyl}-2-methyl-6-oxo-1,6-dihydropyrimidine-4-carboxamide] |
| 12 nM | CCc1nc(C(=O)N[C@](C)(CO)c2ccc(C(F)(F)F)cc2)cc(=O)[nH]1 [Example 638, 2-ethyl-N-{(1S)-2-hydroxy-1-methyl-1-[4-(trifluoromethyl)phenyl]ethyl}-6-oxo-1,6-dihydropyrimidine-4-carboxamide] |
| 2 nM | CCc1nc(C(=O)N[C@](C)(CO)c2ccc(C(F)(F)F)cc2Cl)cc(=O)[nH]1 [Example 639, N-{(1S)-1-[2-chloro-4-(trifluoromethyl)phenyl]-2-hydroxy-1-methylethyl}-2-ethyl-6-oxo-1,6-dihydropyrimidine-4-carboxamide] |
| 4.4 nM | Cc1nc(C(=O)N[C@](C)(CO)c2ccc(C(F)(F)F)cc2Cl)cc(=O)[nH]1 [Example 640, N-{(1S)-1-[2-chloro-4-(trifluoromethyl)phenyl]-2-hydroxy-1-methylethyl}-2-methyl-6-oxo-1,6-dihydropyrimidine-4-carboxamide] |
| 32 nM | Cc1nc(C(=O)NC(C)(C)c2ccc(C(F)(F)F)c(Cl)c2)cc(=O)[nH]1 [Example 641, N-{1-[3-chloro-4-(trifluoromethyl)phenyl]-1-methylethyl}-2-methyl-6-oxo-1,6-dihydropyrimidine-4-carboxamide] |
| 4.8 nM | C[C@](CO)(NC(=O)c1cc(=O)[nH]c(-c2ccccc2)n1)c1ccc(C(F)(F)F)cc1 [Example 642, N-{(1S)-2-hydroxy-1-methyl-1-[4-(trifluoromethyl)phenyl]ethyl}-6-oxo-2-phenyl-1,6-dihydropyrimidine-4-carboxamide] |
| 0.5 nM | C[C@](CO)(NC(=O)c1cc(=O)[nH]c(-c2ccccc2)n1)c1ccc(C(F)(F)F)cc1Cl [Example 643, N-{(1S)-1-[2-chloro-4-(trifluoromethyl)phenyl]-2-hydroxy-1-methylethyl}-6-oxo-2-phenyl-1,6-dihydropyrimidine-4-carboxamide] |
| 7.3 nM | Cc1nc(C(=O)N[C@@H](c2ccc(C(F)F)cc2)C(C)(C)C)cc(=O)[nH]1 [Example 644, N-{(1R)-1-[4-(difluoromethyl)phenyl]-2,2-dimethylpropyl}-2-methyl-6-oxo-1,6-dihydropyrimidine-4-carboxamide] |
| 25 nM | Cc1nc(C(=O)N[C@@H](c2ccc(C(F)F)cc2)C2(C)CC2)cc(=O)[nH]1 [Example 645, N-[(R)-[4-(difluoromethyl)phenyl](1-methylcyclopropyl)methyl]-2-methyl-6-oxo-1,6-dihydropyrimidine-4-carboxamide] |

| Ki | SMILES |
| --- | --- |
| 15 nM | Cc1nc(C(=O)N[C@@H](c2ccc(C(F)F)c(F)c2)C(C)(C)C)cc(=O)[nH]1 [Example 646, N-{(1R)-1-[4-(difluoromethyl)-3-fluorophenyl]-2,2-dimethylpropyl}-2-methyl-6-oxo-1,6-dihydropyrimidine-4-carboxamide] |
| 52 nM | Cc1nc(C(=O)N[C@@H](c2ccc(C(F)F)c(F)c2)C2(C)CC2)cc(=O)[nH]1 [Example 647, N-[(R)-[4-(difluoromethyl)-3-fluorophenyl](1-methylcyclopropyl)methyl]-2-methyl-6-oxo-1,6-dihydropyrimidine-4-carboxamide] |
| 34 nM | Cc1nc(C(=O)N[C@@H](c2ccc(C(F)F)cc2)C(C)C)cc(=O)[nH]1 [Example 648, N-{(1R)-1-[4-(difluoromethyl)phenyl]-2-methylpropyl}-2-methyl-6-oxo-1,6-dihydropyrimidine-4-carboxamide] |
| 47 nM | Cc1nc(C(=O)N[C@@H](c2ccc(C(F)F)cc2)C2CC2)cc(=O)[nH]1 [Example 649, N-{(1R)-cyclopropyl[4-(difluoromethyl)phenyl]methyl}-2-methyl-6-oxo-1,6-dihydropyrimidine-4-carboxamide] |
| 33 nM | Cc1nc(C(=O)N[C@@H](c2ccc(C(F)F)c(F)c2)C(C)C)cc(=O)[nH]1 [Example 650, N-{(1R)-1-[4-(difluoromethyl)-3-fluorophenyl]-2-methylpropyl}-2-methyl-6-oxo-1,6-dihydropyrimidine-4-carboxamide] |
| 109 nM | Cc1nc(C(=O)N[C@@H](c2ccc(C(F)F)c(F)c2)C2CC2)cc(=O)[nH]1 [Example 651, N-{(R)-cyclopropyl[4-(difluoromethyl)-3-fluorophenyl]methyl}-2-methyl-6-oxo-1,6-dihydropyrimidine-4-carboxamide] |
| 138 nM | CC[C@@H](NC(=O)c1cc(=O)[nH]c(C)n1)c1ccc(C(F)F)cc1 [Example 652, N-{(1R)-1-[4-(difluoromethyl)phenyl]propyl}-2-methyl-6-oxo-1,6-dihydropyrimidine-4-carboxamide] |
| 148 nM | CC[C@@H](NC(=O)c1cc(=O)[nH]c(C)n1)c1ccc(C(F)F)c(F)c1 [Example 653] |
| 72 nM | Cc1nc(C(=O)NC(C)(C)c2ccc(C(F)F)c(F)c2)cc(=O)[nH]1 [Example 654, N-{1-[4-(difluoromethyl)-3-fluorophenyl]-1-methylethyl}-2-methyl-6-oxo-1,6-dihydropyrimidine-4-carboxamide] |
| 64 nM | Cc1nc(C(=O)NC2(c3ccc(C(F)F)c(F)c3)CC2)cc(=O)[nH]1 [Example 655, N-{l-[4-(difluoromethyl)-3-fluorophenyl]cyclopropyl}-2-methyl-6-oxo-1,6-dihydropyrimidine-4-carboxamide] |
| 111 nM | Cc1nc(C(=O)N[C@H](C)c2ccc(C(F)F)cc2)cc(=O)[nH]1 [Example 656, N-{(1R)-1-[4-(difluoromethyl)phenyl]ethyl}-2-methyl-6-oxo-1,6-dihydropyrimidine-4-carboxamide] |
| 133 nM | Cc1nc(C(=O)N[C@H](C)c2ccc(C(F)F)c(F)c2)cc(=O)[nH]1 [Example 657, N-{(1R)-1-[4-(difluoromethyl)-3-fluorophenyl]ethyl}-2-methyl-6-oxo-1,6-dihydropyrimidine-4-carboxamide] |
| 3.8 nM | Cc1nc(C(=O)N[C@@H](c2ccc(C3CC3)cc2)C2(C)CC2)cc(=O)[nH]1 [Example 658, N-[(R)-(4-cyclopropylphenyl)(1-methylcyclopropyl)methyl]-2-methyl-6-oxo-1,6-dihydropyrimidine-4-carboxamide] |
| 139 nM | Cc1nc(C(=O)NC(C)(C)c2cc(F)c(C(F)(F)F)cc2Cl)cc(=O)[nH]1 [Example 659, N-{1-[2-chloro-5-fluoro-4-(trifluoromethyl)phenyl]-1-methylethyl}-2-methyl-6-oxo-1,6-dihydropyrimidine-4-carboxamide] |
| 54 nM | Cc1nc(C(=O)NC2(c3ccc(C(F)F)cc3)CC2)cc(=O)[nH]1 [Example 660, N-{1-[4-(difluoromethyl)phenyl]cyclopropyl}-2-methyl-6-oxo-1,6-dihydropyrimidine-4-carboxamide] |
| 6.6 nM | Cc1nc(C(=O)N[C@@H](c2ccc(C(F)F)cc2F)C(C)(C)C)cc(=O)[nH]1 [Example 661, N-{(1R)-1-[4-(difluoromethyl)-2-fluorophenyl]-2,2-dimethylpropyl}-2-methyl-6-oxo-1,6-dihydropyrimidine-4-carboxamide] |
| > 2960 nM | Cc1nc(C(=O)N[C@H](C)c2ccc(S(F)(F)(F)(F)F)cc2F)cc(=O)[nH]1 [Example 672, N-(1-(2-fluoro-4-(pentafluorothio)phenyl)ethyl)-2-methyl-6-oxo-1,6-dihydropyrimidine-4-carboxamide] |
